Columns and labels:
Phakopsora pachyrhizi = test: Fungicidal activity against Phakopsora pachyrhizi / soybean / leaf disc preventative (Asian soybean rust); type: in vivo; settings: foliar, 200 ppm in the applied formulation, soybean leaf disks, preventative (inoculated one day after application), assessed 12 to 14 days after application, read-out: disease control compared to untreated control leaf disks
Summary of the method: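 Preventative test: compound applied to soybean leaf discs a day before spore inoculation of the lower surface. Discs kept at 20° C and 75% rh, first 24-36 h in darkness, then under 12 h light/day; disease control relative to untreated discs rated 12 to 14 days post-application.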

[1] = system: Glomerella laqenarium (Colletotrichum lagenarium); test: Fungicidal activity against Glomerella lagenarium (Colletotrichum lagenarium) liquid culture / cucumber / preventative (anthracnose); type: cell-based; settings: Colletotrichum orbiculare; 20 ppm in the applied formulation; liquid culture in PDB, 24° C., 3 to 4 days after application; read-out: disease control compared to untreated control (inhibition of growth measured photometrically)
Summary of the method: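 Test compound, applied from DMSO solution, is combined with PDB containing conidia taken from cryogenic storage. After 3–4 days at 24 °C, growth is measured photometrically and antifungal activity expressed as percent relative to untreated control.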

Uromyces viciae-fabae = test: Fungicidal activity against Uromyces viciae-fabae / field bean / leaf disc preventative (faba-bean rust); type: in vivo; settings: foliar, 288 h, 100 ppm in the applied formulation, field bean leaf discs, preventative (inoculated two hours after application), assessed 12 days after application, read-out: disease control compared to untreated control leaf discs
Summary of the method: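 Field bean leaf discs on water agar treated with 10 μl compound in acetone plus spreader, then spray-inoculated on the lower surface with Uromyces viciae-fabae spores 2 h later. Incubation at 22 °C, 18 h day, 70% RH; percent disease control versus untreated scored 12 days after application, compounds at 100 ppm.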

[2] = system: Puccinia recondita f. sp. tritici; test: Fungicidal activity against Puccinia recondita f. sp. tritici / wheat / leaf disc preventative (brown rust); type: in vivo; settings: foliar, 200 ppm in the applied formulation, wheat leaf segments cv. Kanzler, preventative (inoculated 1 day after application), assessed 7 to 9 days after application, read-out: disease control compared to untreated control leaf disks
Summary of the method: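 Preventative leaf-segment test: compound sprayed at 200 ppm onto wheat (cv. Kanzler) segments, brown rust spores applied 1 day after. Kept at 19C and 75% rh under 12 h light/dark cycles; disease control versus untreated check read 7 to 9 days post-application.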

[3] = system: Puccinia recondita f. sp. tritici; test: Fungicidal activity against Puccinia recondita f. sp. tritici / wheat / leaf disc curative (brown rust); type: in vivo; settings: foliar, 200 ppm in the applied formulation, wheat leaf segments cv. Kanzler, curative (applied 1 day after inoculation), assessed 6 to 8 days after application, read-out: disease control compared to untreated control leaf disks
Summary of the method: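 Curative test: compound, diluted from DMSO stock into water, applied one day after spore inoculation of wheat (cv. Kanzler) leaf segments kept on agar in darkness at 19° C. and 75% RH. Climate-cabinet incubation (19° C., 75% RH, 12 h photoperiod); disease control relative to untreated read 6–8 days post-application.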

Row | SMILES | pest or weed control at 200 ppm (Phakopsora pachyrhizi) [%] | inhibition at 20 ppm [1] [%] | pest or weed control at 100 ppm (Uromyces viciae-fabae) [%] | melting point [°C] | pest or weed control at 200 ppm [2] [%] | pest or weed control at 200 ppm [3] [%]
1 | O=C(NCC1CCCC1)c1ccc(-c2noc(C(F)(F)F)n2)cc1F [Compound 2b.8, N (cyclopentylmethyl)-2-fluoro-4-[5-(trifluoromethyl)-1,2,4-oxadiazol-3-yl]benzamide] | ≥ 80 | ≥ 80 | ≥ 80 | 122 to 125.6 |  | 
2 | CC(COC(F)F)NC(=O)c1ccc(-c2noc(C(F)(F)F)n2)cc1 (stereo not drawn) [Compound 3a.43, N-[2-(difluoromethoxy)-1-methyl-ethyl]-4-[5-(trifluoromethyl)-1,2,4-oxadiazol-3-yl]benzamide] | ≥ 80 | ≥ 80 |  | 128 to 130 | ≥ 80 | ≥ 80
3 | O=C(NCCOC(F)F)c1ccc(-c2noc(C(F)(F)F)n2)cc1 [Compound 3a.45, N-[2-(difluoromethoxy)ethyl]-4-[5-(trifluoromethyl)-1,2,4-oxadiazol-3-yl]benzamide] | ≥ 80 | ≥ 80 |  | 117 to 120 | ≥ 80 | ≥ 80
4 | CC(C)CC(C)NC(=O)c1ccc(-c2noc(C(F)(F)F)n2)cc1F (stereo not drawn) [Compound 3b.7, N-(1,3-dimethylbutyl)-2-fluoro-4-[5-(trifluoromethyl)-1,2,4-oxadiazol-3-yl]benzamide] | ≥ 80 | ≥ 80 | ≥ 80 | 108.5 to 110.4 | ≥ 80 | 
5 | Cc1ccc(CNC(=O)c2ccc(-c3noc(C(F)(F)F)n3)cc2)cc1 [Compound 4a.1, N-(p-tolylmethyl)-4-[5-(trifluoromethyl)-1,2,4-oxadiazol-3-yl]benzamide] | ≥ 80 | ≥ 80 | ≥ 80 | 198 to 203 |  | 
6 | Cc1cccc(CNC(=O)c2ccc(-c3noc(C(F)(F)F)n3)cc2)c1 [Compound 4a.2, N-(m-tolylmethyl)-4-[5-(trifluoromethyl)-1,2,4-oxadiazol-3-yl]benzamide] | ≥ 80 | ≥ 80 | ≥ 80 | 135 to 141 | ≥ 80 | 
7 | COc1ccc(CNC(=O)c2ccc(-c3noc(C(F)(F)F)n3)cc2)cc1 [Compound 4a.3, N-[(4-methoxyphenyl)methyl]-4-[5-(trifluoromethyl)-1,2,4-oxadiazol-3-yl]benzamide] | ≥ 80 | ≥ 80 | ≥ 80 | 154 to 159 | ≥ 80 | 
8 | CC(NC(=O)c1ccc(-c2noc(C(F)(F)F)n2)cc1F)c1ccccc1 (stereo not drawn) [Compound 4b.3, 2-fluoro-N-(1-phenylethyl)-4-[5-(trifluoromethyl)-1,2,4-oxadiazol-3-yl]benzamide] | ≥ 80 |  | ≥ 80 | 121.1 to 123.7 | ≥ 80 | 
9 | O=C(NCc1cccc(F)c1)c1ccc(-c2noc(C(F)(F)F)n2)cc1F [Compound 4b.4, 2-fluoro-N-[(3-fluorophenyl)methyl]-4-[5-(trifluoromethyl)-1,2,4-oxadiazol-3-yl]benzamide] | ≥ 80 |  | ≥ 80 | 129.4 to 130.9 | ≥ 80 | 
10 | O=C(NCc1nccs1)c1ccc(-c2noc(C(F)(F)F)n2)cc1 [Compound 5a.10, N-(thiazol-2-ylmethyl)-4-[5-(trifluoromethyl)-1,2,4-oxadiazol-3-yl]benzamide] | ≥ 80 | ≥ 80 | ≥ 80 |  | ≥ 80 | ≥ 80
11 | CN(Cc1cccs1)C(=O)c1ccc(-c2noc(C(F)(F)F)n2)cc1F [Compound 5b.2, 2-fluoro-N-methyl-N-(2-thienylmethyl)-4-[5-(trifluoromethyl)-1,2,4-oxadiazol-3-yl]benzamide] | ≥ 80 | ≥ 80 | ≥ 80 |  | ≥ 80 | ≥ 80
12 | O=C(NCc1ncc(C(F)(F)F)cc1Cl)c1ccc(-c2noc(C(F)(F)F)n2)cc1F [Compound 5b.4, N-[[3-chloro-5-(trifluoromethyl)-2-pyridyl]methyl]-2-fluoro-4-[5-(trifluoromethyl)-1,2,4-oxadiazol-3-yl]benzamide] | ≥ 80 |  | ≥ 80 | 126.6 to 128.3 |  | 
13 | O=C(NCCc1ncc(C(F)(F)F)cc1Cl)c1ccc(-c2noc(C(F)(F)F)n2)cc1F [Compound 5b.5, N-[2-[3-chloro-5-(trifluoromethyl)-2-pyridyl]ethyl]-2-fluoro-4-[5-(trifluoromethyl)-1,2,4-oxadiazol-3-yl]benzamide] | ≥ 80 |  | ≥ 80 | 144.9 to 146.5 |  | 
14 | Cc1ccc(CNC(=O)c2ccc(-c3noc(C(F)(F)F)n3)cc2F)o1 [Compound 5b.9, 2-fluoro-N-[(5-methyl-2-furyl)methyl]-4-[5-(trifluoromethyl)-1,2,4-oxadiazol-3-yl]benzamide] | ≥ 80 | ≥ 80 | ≥ 80 |  | ≥ 80 | ≥ 80
15 | O=C(NCc1ccco1)c1ccc(-c2noc(C(F)(F)F)n2)cc1F [Compound 5b.11, 2-fluoro-N-(2-furylmethyl)-4-[5-(trifluoromethyl)-1,2,4-oxadiazol-3-yl]benzamide] | ≥ 80 | ≥ 80 | ≥ 80 |  | ≥ 80 | ≥ 80
16 | O=C(NCCc1cccs1)c1ccc(-c2noc(C(F)(F)F)n2)cc1F [Compound 5b.13, 2-fluoro-N-[2-(2-thienyl)ethyl]-4-[5-(trifluoromethyl)-1,2,4-oxadiazol-3-yl]benzamide] | ≥ 80 | ≥ 80 | ≥ 80 |  | ≥ 80 | ≥ 80
17 | Cc1ccc(CNC(=O)c2ccc(-c3noc(C(F)(F)F)n3)cc2Cl)o1 [Compound 5b.16, 2-chloro-N-[(5-methyl-2-furyl)methyl]-4-[5-(trifluoromethyl)-1,2,4-oxadiazol-3-yl]benzamide] | ≥ 80 | ≥ 80 | ≥ 80 |  | ≥ 80 | ≥ 80
18 | O=C(NCc1ccco1)c1ccc(-c2noc(C(F)(F)F)n2)cc1Cl [Compound 5b.17, 2-chloro-N-(2-furylmethyl)-4-[5-(trifluoromethyl)-1,2,4-oxadiazol-3-yl]benzamide] | ≥ 80 | ≥ 80 | ≥ 80 |  | ≥ 80 | ≥ 80
19 | O=C(NCc1nccs1)c1ccc(-c2noc(C(F)(F)F)n2)cc1F [Compound 5b.19, 2-fluoro-N-(thiazol-2-ylmethyl)-4-[5-(trifluoromethyl)-1,2,4-oxadiazol-3-yl]benzamide] | ≥ 80 | ≥ 80 | ≥ 80 |  | ≥ 80 | ≥ 80

— patent publication US10959432B2, “Microbiocidal oxadiazole derivatives” (Syngenta Participations AG, priority 2016, dated 2021)
